From ChEMBL document CHEMBL3046940, “Microwave-assisted synthesis of novel 4H-chromene derivatives bearing 2-aryloxyquinoline and their antimicrobial activity assessment” (2013) come the findings set out here.

Usually MIC stands for the lowest concentration found to suppress growth.

In brackets after ≈: the same amount, converted by molar mass.

One test deals with Vibrio cholerae. The experiment in a line: Antimicrobial activity against Vibrio cholerae MTCC 3906 assessed as growth inhibition after 24-48 hr by NCCLS broth microdilution method. In kind it is functional. A general note: In broth dilution the organism is exposed to a series of concentrations in liquid medium.
For the compound `COc1ccc2nc(Oc3ccc(F)cc3)c(C3C(C#N)=C(N)OC4=C3C(=O)CC(C)(C)C4)cc2c1` (configuration not stated), the minimum inhibitory concentration (MIC) stood at 250 µg/mL (≈ 515 µM).
On to `O=C(N[C@H](CO)[C@H](O)c1ccc([N+](=O)[O-])cc1)C(Cl)Cl` [CHLORAMPHENICOL], for which the MIC amounted to 50 µg/mL (≈ 155 µM).
Turning to `COc1ccc2nc(Oc3ccc(C)cc3)c(C3C(C#N)=C(N)OC4=C3C(=O)CC(C)(C)C4)cc2c1` (configuration not stated), the MIC was found to be 200 µg/mL (≈ 415 µM).
On the same count and under the same terms, in the case of `COc1ccc(Oc2nc3ccc(OC)cc3cc2C2C(C#N)=C(N)OC3=C2C(=O)CC(C)(C)C3)cc1` (configuration not stated) it was 250 µg/mL (≈ 502 µM); in that of `N#CC1=C(N)OC2=C(C(=O)CCC2)C1c1cc2ccccc2nc1Oc1ccc(F)cc1` (configuration not stated), 500 µg/mL (≈ 1170 µM).

For a further test, the system named is Bacillus subtilis. The experiment in a line: Antimicrobial activity against Bacillus subtilis MTCC 441 assessed as growth inhibition after 24-48 hr by NCCLS broth microdilution method. In kind it is functional.
Take `COc1ccc2nc(Oc3ccc(F)cc3)c(C3C(C#N)=C(N)OC4=C3C(=O)CC(C)(C)C4)cc2c1` (configuration not stated): the minimum inhibitory concentration (MIC) is 200 µg/mL (≈ 412 µM).
The same measure, in the same setting: under `O=C(N[C@H](CO)[C@H](O)c1ccc([N+](=O)[O-])cc1)C(Cl)Cl` [CHLORAMPHENICOL] stands 50 µg/mL (≈ 155 µM); under `COc1ccc2nc(Oc3ccc(C)cc3)c(C3C(C#N)=C(N)OC4=C3C(=O)CC(C)(C)C4)cc2c1` (configuration not stated), 500 µg/mL (≈ 1040 µM); under `COc1ccc(Oc2nc3ccc(OC)cc3cc2C2C(C#N)=C(N)OC3=C2C(=O)CC(C)(C)C3)cc1` (configuration not stated), 1000 µg/mL (≈ 2010 µM).
Still for that read-out and setting: in the case of `N#CC1=C(N)OC2=C(C(=O)CCC2)C1c1cc2ccccc2nc1Oc1ccc(F)cc1` (configuration not stated) it was 250 µg/mL (≈ 585 µM).

The test system of a further test is Escherichia coli. Kind of test: Antimicrobial activity against Escherichia coli MTCC 443 assessed as growth inhibition after 24-48 hr by NCCLS broth microdilution method. In kind it is functional.
With `COc1ccc2nc(Oc3ccc(F)cc3)c(C3C(C#N)=C(N)OC4=C3C(=O)CC(C)(C)C4)cc2c1` (configuration not stated), the minimal inhibitory concentration (MIC) was 62.5 µg/mL (≈ 129 µM).
On the same count and under the same terms, under `O=C(N[C@H](CO)[C@H](O)c1ccc([N+](=O)[O-])cc1)C(Cl)Cl` [CHLORAMPHENICOL] stands 50 µg/mL (≈ 155 µM); under `COc1ccc2nc(Oc3ccc(C)cc3)c(C3C(C#N)=C(N)OC4=C3C(=O)CC(C)(C)C4)cc2c1` (configuration not stated), 100 µg/mL (≈ 208 µM); under `COc1ccc(Oc2nc3ccc(OC)cc3cc2C2C(C#N)=C(N)OC3=C2C(=O)CC(C)(C)C3)cc1` (configuration not stated), 250 µg/mL (≈ 502 µM).
Same read-out and setting: in the case of `N#CC1=C(N)OC2=C(C(=O)CCC2)C1c1cc2ccccc2nc1Oc1ccc(F)cc1` (configuration not stated) it was 100 µg/mL (≈ 234 µM).

The next test relates to Candida albicans. Kind of test: Antimicrobial activity against Candida albicans MTCC 227 assessed as growth inhibition after 24-48 hr by NCCLS broth microdilution method. In kind it is functional.
For the compound `COC1=CC(=O)C[C@@H](C)[C@]12Oc1c(Cl)c(OC)cc(OC)c1C2=O` [GRISEOFULVIN], the MIC was found to be 500 µg/mL (≈ 1420 µM).
Take `COc1ccc2nc(Oc3ccc(F)cc3)c(C3C(C#N)=C(N)OC4=C3C(=O)CC(C)(C)C4)cc2c1` (configuration not stated): the MIC is 500 µg/mL (≈ 1030 µM).
Still for that read-out and setting: in the case of `COc1ccc2nc(Oc3ccc(C)cc3)c(C3C(C#N)=C(N)OC4=C3C(=O)CC(C)(C)C4)cc2c1` (configuration not stated) it was 1000 µg/mL (≈ 2080 µM).
As for `COc1ccc(Oc2nc3ccc(OC)cc3cc2C2C(C#N)=C(N)OC3=C2C(=O)CC(C)(C)C3)cc1` (configuration not stated), the minimal inhibitory concentration (MIC) came out at 250 µg/mL (≈ 502 µM).
Same read-out and setting: under `N#CC1=C(N)OC2=C(C(=O)CCC2)C1c1cc2ccccc2nc1Oc1ccc(F)cc1` (configuration not stated) stands 250 µg/mL (≈ 585 µM).
Take NYSTATIN: the minimum inhibitory concentration (MIC) stood at 100 µg/mL.

A further test deals with Salmonella typhi. Kind of test: Antimicrobial activity against Salmonella enterica subsp. enterica serovar Typhi MTCC 98 assessed as growth inhibition after 24-48 hr by NCCLS broth microdilution method. In kind it is functional.
`COc1ccc2nc(Oc3ccc(F)cc3)c(C3C(C#N)=C(N)OC4=C3C(=O)CC(C)(C)C4)cc2c1` (configuration not stated): the MIC amounted to 100 µg/mL (≈ 206 µM).
For the compound `O=C(N[C@H](CO)[C@H](O)c1ccc([N+](=O)[O-])cc1)C(Cl)Cl` [CHLORAMPHENICOL], the minimum inhibitory concentration (MIC) is 50 µg/mL (≈ 155 µM).
Same read-out and setting: in the case of `COc1ccc2nc(Oc3ccc(C)cc3)c(C3C(C#N)=C(N)OC4=C3C(=O)CC(C)(C)C4)cc2c1` (configuration not stated) it was 100 µg/mL (≈ 208 µM); in that of `COc1ccc(Oc2nc3ccc(OC)cc3cc2C2C(C#N)=C(N)OC3=C2C(=O)CC(C)(C)C3)cc1` (configuration not stated), 250 µg/mL (≈ 502 µM); in that of `N#CC1=C(N)OC2=C(C(=O)CCC2)C1c1cc2ccccc2nc1Oc1ccc(F)cc1` (configuration not stated), 200 µg/mL (≈ 468 µM).

The subject of another test is Clostridium tetani. The experiment in a line: Antimicrobial activity against Clostridium tetani MTCC 449 assessed as growth inhibition after 24-48 hr by NCCLS broth microdilution method. In kind it is functional.
In the case of `COc1ccc2nc(Oc3ccc(F)cc3)c(C3C(C#N)=C(N)OC4=C3C(=O)CC(C)(C)C4)cc2c1` (configuration not stated), the MIC was 200 µg/mL (≈ 412 µM).
For the compound `O=C(N[C@H](CO)[C@H](O)c1ccc([N+](=O)[O-])cc1)C(Cl)Cl` [CHLORAMPHENICOL], the minimal inhibitory concentration (MIC) was 50 µg/mL (≈ 155 µM).
Take `COc1ccc2nc(Oc3ccc(C)cc3)c(C3C(C#N)=C(N)OC4=C3C(=O)CC(C)(C)C4)cc2c1` (configuration not stated): the MIC worked out at 100 µg/mL (≈ 208 µM).
On to `COc1ccc(Oc2nc3ccc(OC)cc3cc2C2C(C#N)=C(N)OC3=C2C(=O)CC(C)(C)C3)cc1` (configuration not stated), for which the MIC was determined as 250 µg/mL (≈ 502 µM).
On to `N#CC1=C(N)OC2=C(C(=O)CCC2)C1c1cc2ccccc2nc1Oc1ccc(F)cc1` (configuration not stated), for which the MIC turned out to be 500 µg/mL (≈ 1170 µM).

Another test deals with Aspergillus fumigatus. Kind of test: Antimicrobial activity against Aspergillus fumigatus MTCC 3008 assessed as growth inhibition after 24-48 hr by NCCLS broth microdilution method. In kind it is functional.
Take `COC1=CC(=O)C[C@@H](C)[C@]12Oc1c(Cl)c(OC)cc(OC)c1C2=O` [GRISEOFULVIN]: the MIC worked out at 100 µg/mL (≈ 283 µM).
Take `COc1ccc2nc(Oc3ccc(F)cc3)c(C3C(C#N)=C(N)OC4=C3C(=O)CC(C)(C)C4)cc2c1` (configuration not stated): the MIC was determined as 500 µg/mL (≈ 1030 µM).
Turning to `COc1ccc2nc(Oc3ccc(C)cc3)c(C3C(C#N)=C(N)OC4=C3C(=O)CC(C)(C)C4)cc2c1` (configuration not stated), the minimum inhibitory concentration (MIC) was 500 µg/mL (≈ 1040 µM).
Same read-out and setting: under `COc1ccc(Oc2nc3ccc(OC)cc3cc2C2C(C#N)=C(N)OC3=C2C(=O)CC(C)(C)C3)cc1` (configuration not stated) stands 500 µg/mL (≈ 1000 µM).
Same read-out and setting: under `N#CC1=C(N)OC2=C(C(=O)CCC2)C1c1cc2ccccc2nc1Oc1ccc(F)cc1` (configuration not stated) stands above 1000 µg/mL; under NYSTATIN, 100 µg/mL.

In the next test the test system is Streptococcus pneumoniae. Kind of test: Antimicrobial activity against Streptococcus pneumoniae MTCC 1936 assessed as growth inhibition after 24-48 hr by NCCLS broth microdilution method. In kind it is functional.
In the case of `COc1ccc2nc(Oc3ccc(F)cc3)c(C3C(C#N)=C(N)OC4=C3C(=O)CC(C)(C)C4)cc2c1` (configuration not stated), the minimal inhibitory concentration (MIC) came to 150 µg/mL (≈ 309 µM).
With `O=C(N[C@H](CO)[C@H](O)c1ccc([N+](=O)[O-])cc1)C(Cl)Cl` [CHLORAMPHENICOL], the MIC is 50 µg/mL (≈ 155 µM).
In the case of `COc1ccc2nc(Oc3ccc(C)cc3)c(C3C(C#N)=C(N)OC4=C3C(=O)CC(C)(C)C4)cc2c1` (configuration not stated), the minimum inhibitory concentration (MIC) came out at 500 µg/mL (≈ 1040 µM).
Same read-out and setting: under `COc1ccc(Oc2nc3ccc(OC)cc3cc2C2C(C#N)=C(N)OC3=C2C(=O)CC(C)(C)C3)cc1` (configuration not stated) stands 1000 µg/mL (≈ 2010 µM); under `N#CC1=C(N)OC2=C(C(=O)CCC2)C1c1cc2ccccc2nc1Oc1ccc(F)cc1` (configuration not stated), 250 µg/mL (≈ 585 µM).
